Paper PMC8876511, “Two out of Three Musketeers Fight against Cancer: Synthesis, Physicochemical, and Biological Properties of Phosphino Cu^I, Ru^II, Ir^III Complexes” (Pharmaceuticals, 2022)

Tested on: A549 cells
Assay: Annexin V-FITC/PI double staining, flow cytometry
Assay type: cell-based, human
Settings: A549, 50 μM, 24 h
Protocol: The cell death induced by selected Ir(III) and Ru(II) complexes was assessed using Annexin V-FITC/PI double staining. Based on this assay the differentiation of the following cells population was possible: viable cells (Annexin-FITC negative, PI negative), apoptotic cells (Annexin-FITC positive, PI negative), late apoptotic cells (Annexin-FITC positive and PI positive), and necrotic cells (Annexin-FITC negative, PI positive). Treatment of A549 cells with Ir(III) or Ru(II) complexes leads to a dose-dependent increase in the percentage of cells in each phase (Figure 5).
Cell death was quantified using the AnnexinV-FITC/PI double staining kit (Sigma Aldrich). The cells (1 × 10^5 per well) were cultured overnight in 12-well plates. Then, cells were treated with tested compounds for 24 h. After this time, cells were passaged, collected by centrifugation, and washed twice in Hank’s Balanced Salt Solution (HBBS). The cells were then re-suspended in 500 μL binding buffer and stained with annexin V-FITC and PI according to the manufacturer’s instructions (Sigma Aldrich). Stained A549 cells were then examined using a Guava® easyCyte™ flow cytometer equipped with a 488 nm laser. The obtained data were analyzed using InCyte software (MerckMillipore, Burlington, MA, USA).

Ru(η^6-p-cymene)Cl2Ph2PCH2N(CH2CH3)2 [1b]
late apoptotic cells (upper right quadrant): 30%
